Experimental findings from patent US8404665B2, “In vivo use of glutathione S-transferase activated nitric oxide donors” (University of Utah Research Foundation, priority 2002, dated 2013) are described below.

The test concerns HL-60 cells. Briefly: HL-60 leukemia cell growth (Coulter counter or MTT assay). The settings on record: for IC50: Homo sapiens; for effect on cell growth: HL-60, NAC 0.3-0.5 mM or BSO 0.2-0.3 mM alone; for inhibition of cell growth: HL-60 screen. The test is classed as cell-based, human. As for the experimental part: Cell Lines and Culture Conditions. HL-60, DLD1, and U937 cells were obtained from ATCC (Rockville, Md.). Meth A cells were from Dr. Wolfram Samlowski (University of Utah, Salt Lake City, Utah). The PPC-1 cell line was provided by Dr. Graeme Bolger (University of Alabama, Birmingham, Ala.). For the cell growth and apoptosis experiments, cells were cultured at a density of 150,000 cells/ml in RPMI-1640 with 10% fetal bovine serum at 37° C. in a 5% CO2 humidified atmosphere. Agents were added at the indicated concentrations 24 h after culture initiation. At the indicated time intervals, cells were harvested and washed twice in phosphate buffered saline (PBS) prior to processing for analysis of growth, differentiation, and apoptosis.
Cell Growth, Differentiation and Apoptosis Assays. The number of viable cells was determined using the MTT assay according to the manufacturer's protocol (Promega, Madison, Wis.) or using a Coulter counter. Briefly, a MTT assay is an analytical technique that uses the dye dimethylthiazolyl-diphenyltetrazolium (MTT) which turns from yellow to brownish-purple as it is reduced in the mitochondria of living cells. The assay is useful in calorimetric quantitation of cell viability and proliferation. In contrast, cell differentiation was evaluated using Wright and Non-Specific Esterase (NSE) staining of cells collected on microscope slides by cytospin as previously described (Magrinat, G. et al. (1992) Blood 80: 1880-1884). Apoptosis was assayed by flow cytometry and by determining DNA fragmentation using agarose gel electrophoresis as previously described (Shami, P. J. et al. (1998) Leukemia 12: 1461-1466). For the flow cytometry assay, we used the propidium iodide staining method of Nicoletti et al. (Nicoletti, I. et al. (1991) J. Immunol. Methods 139: 271-279).
For the initial screen, HL60 cells were cultured in triplicate in RPMI1640/10% FBS under standard conditions. Compounds were added to the cultures at the following concentrations: 0, 0.1, 1, 10, and 100 micromolar (uM). Three days after addition of the compounds cell growth was determined either using a Coulter counter or using the MTT assay.
The antiproliferative effects in the human AML (Acute Myeloid Leukemia) cell lines, HL-60 (myeloid leukemia) and U937 (monoblastic leukemia) cells were treated with JS-K for a period of 3 days, upon which cell growth was evaluated using a Coulter counter (CITY, STATE). JS-K was added to HL-60 cells at 0, 0.25, 0.5, 0.75, and 1.0 μM concentrations. […] Similar results were obtained in U937 cells under similar conditions.

[1] abbreviates: HL-60 assay system, comparison with chemotherapeutic agents, read-out: IC50, growth inhibition.

Like-named read-outs stand apart in the source and are kept apart here.

Take `O=[N+]([O-])c1ccc(Cl)c([N+](=O)[O-])c1` [1-Chloro-2,4-dinitrobenzene, reference compound]: the IC50 (HL-60, read-out: IC50, growth inhibition) is ~6.7 µM.

Consider `CCCCS(=N)(=O)CCC(N)C(=O)O` (stereo not shown) [BSO, buthionine sulfoximine, reference compound], for which the “effect on cell growth” value is listed as “did not appear to significantly affect cell growth”.

Consider `O=[N+]([O-])c1ccc(ON=[N+]([O-])N2CCN(c3ccccc3)CC2)c([N+](=O)[O-])c1` [JXC-2-40, O^2-(2,4-dinitrophenyl) 1-[4-phenylpiperazin-1-yl]diazen-1-ium-1,2-diolate], for which the “inhibition of cell growth” value is “good inhibitors of cell growth”.

For the compound `O=[N+]([O-])c1ccc(ON=[N+]([O-])N2CCN(c3ncccn3)CC2)c([N+](=O)[O-])c1` [JXC-2-56, O^2-(2,4-dinitrophenyl) 1-[4-(pyrimidin-2-yl)piperazin-1-yl]diazen-1-ium-1,2-diolate], the “inhibition of cell growth” value was “good inhibitors of cell growth”.

As to `CC(=O)N[C@@H](CS)C(=O)O` [NAC, N-acetyl-L-cysteine, reference compound], the “effect on cell growth” value is listed as “did not appear to significantly affect cell growth”.

Take `COc1cccc2c1C(=O)c1c(O)c3c(c(O)c1C2=O)C[C@@](O)(C(C)=O)C[C@@H]3O[C@H]1C[C@H](N)[C@H](O)[C@H](C)O1` [daunorubicin, reference compound]: under setting [1], the IC50 stood at 0.01 µM.

On to `COc1cc([C@@H]2c3cc4c(cc3[C@@H](O[C@@H]3O[C@@H]5CO[C@@H](C)O[C@H]5[C@H](O)[C@H]3O)[C@H]3COC(=O)[C@H]23)OCO4)cc(OC)c1O` [etoposide, reference compound], for which, under setting [1], the half-inhibitory concentration (IC50) amounted to 0.3 µM.

By IC50 is commonly meant the midpoint of a concentration-inhibition curve.
